In US20060069132A1, “Azolecarboxamide herbicides” (priority 2004, published 2006):

Tests used:
prickly sida = experiment: Test E pre-/postemergence herbicide test; format: in vivo, Sida spinosa; settings: Preemergence
Excerpt: (§1) Seeds of plant species selected from bipinnate beggarticks (Bidens bipinnata L.), hairy beggarticks (Bidens radiata Thuill.), bermudagrass (Cynodon dactylon (L.) Pers.), Surinam grass (Urochloa decumbens (Staph) R. D. Webster, previously named Brachiaria decumbens Stapf), large crabgrass (Digitaria sanguinalis (L.) Scop.), green foxtail (Setaria viridis (L.) P. Beauv.), goosegrass (Eleusine indica (L.) Gaertn.), johnsongrass (Sorghum halepense (L.) Pers.), kochia (Kochia scoparia (L.) Schrad.), pitted morningglory (Ipomoea lacunosa L.), purple nutsedge (Cyperus rotundus L.), common ragweed (Ambrosia elatior L.), mustard (Brassica nigra (L.) W. D. J. Koch), guineagrass (Panicum maximum Jacq.), dallisgrass (Paspalum dilatatum Poir.), barnyardgrass (Echinochloa crus-galli (L). P. Beauv.), southern sandbur (Cenchrus echinatus L.), common sowthistle (Sonchus oleraceous L.), prickly sida (Sida spinosa L.), Italian ryegrass (Lolium multiflorum Lam.), common purslane (Portulaca oleracea L.), broadleaf signalgrass (Brachiaria platyphylla (Griseb.) Nash), common groundsel (Senecio vulgaris L.), common chickweed (Stellaria media (L.) Vill/Cyr.), tropical spiderwort (Commelina benghalensis L.), annual bluegrass (Poa annua L.), downy bromegrass (Bromus tectorum L.), itchgrass (Rottboellia cochinchinensis (L.) L.f.), quackgrass (Elytrigia repens (L.) Nevski), Canada horseweed (Erigeron Canadensis L.), field bindweed (Convolvulus arvensis L.), spotted spurge (Euphorbia maculata L.), common mallow (Malva sylvestris (=s silvestris) L.), and Russian thistle (Salsola kali L. ssp. Ruthenica (Iljin) Soo) were planted and treated preemergence with test chemicals formulated in a non-phytotoxic solvent mixture which included a surfactant.
(§2) At the same time, plants selected from these weed species were treated with postemergence applications of some of the test chemicals formulated in the same manner. Plants ranged in height from 2 to 18 cm (1- to 4-leaf stage) for postemergence treatments. Treated plants and controls were maintained in a greenhouse for 12 to 14 days, after which time all species were compared to controls and visually evaluated. Plant response ratings, summarized in Table E, are based on a scale of 0 to 100 where 0 is no effect and 100 is complete control. A dash (-) response means no test result.

johnsongrass = experiment: Test E pre-/postemergence herbicide test; format: in vivo, Sorghum halepense
Excerpt: as §1, §2

Canada horseweed = experiment: Test E pre-/postemergence herbicide test; format: in vivo, Erigeron Canadensis
Excerpt: as §1, §2

Surinam grass = experiment: Test E pre-/postemergence herbicide test; format: in vivo, Urochloa decumbens
Excerpt: as §1, §2

quackgrass = experiment: Test E pre-/postemergence herbicide test; format: in vivo, Elytrigia repens
Excerpt: as §1, §2

common groundsel = experiment: Test E pre-/postemergence herbicide test; format: in vivo, Senecio vulgaris
Excerpt: as §1, §2

common ragweed = experiment: Test E pre-/postemergence herbicide test; format: in vivo, Ambrosia elatior
Excerpt: as §1, §2

tropical spiderwort = experiment: Test E pre-/postemergence herbicide test; format: in vivo, Commelina benghalensis
Excerpt: as §1, §2

Italian ryegrass [1] = experiment: Test E pre-/postemergence herbicide test; format: in vivo, Lolium multiflorum
Excerpt: as §1, §2

common purslane = experiment: Test E pre-/postemergence herbicide test; format: in vivo, Portulaca oleracea
Excerpt: as §1, §2

bermudagrass = experiment: Test E pre-/postemergence herbicide test; format: in vivo, Cynodon dactylon
Excerpt: as §1, §2

wild oat = experiment: Test C postemergence herbicide test; format: in vivo, Avenafatua
Summary of the method: (§3)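 Postemergence sprays applied to plants 2 to 18 cm tall (1- to 4-leaf stage); paddy species grown to 2-leaf stage under flooding. After 12 to 14 days in greenhouse, visual rating versus untreated controls on 0–100 scale (0 no effect, 100 complete control).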

Italian ryegrass [2] = experiment: Test C postemergence herbicide test; format: in vivo, Lolium multiflorum
Summary of the method: as §3

[3] = 250 g ai/ha, scale 0 (no effect) to 100 (complete control)
[4] = Preemergence, 62 g ai/ha, scale 0 to 100
[5] = Preemergence, 125 g ai/ha, scale 0 to 100
[6] = Preemergence, 250 g ai/ha, scale 0 (no effect) to 100 (complete control)
[7] = Preemergence, 500 g ai/ha, scale 0 (no effect) to 100 (complete control)
[8] = Postemergence, 250 g ai/ha, scale 0 to 100, 0 no effect, 100 complete control
[9] = postemergence, 125 g ai/ha, scale 0 to 100
[10] = postemergence, 62 g ai/ha, scale 0 to 100
[11] = Postemergence, 500 g ai/ha, scale 0 to 100
[12] = Postemergence, 250 g ai/ha, scale 0 to 100

CCc1nn(C(C)C)nc1C(=O)Nc1cccc(C(=O)N2CCCCC2)c1 [Compound 385]
Plant response rating, Prickly Sida (prickly sida; 62 g ai/ha, scale 0 to 100): 10 | Plant response rating, Prickly Sida (prickly sida; 125 g ai/ha, scale 0 to 100): 100 | Plant response rating, Prickly Sida (prickly sida; [3]): 100 | Plant response rating, Johnsongrass (johnsongrass; [4]): 10 | Plant response rating, Johnsongrass (johnsongrass; [5]): 10 | Plant response rating, Johnsongrass (johnsongrass; [6]): 30 | Plant response rating, Horseweed (Canada horseweed; [4]): 0 | Plant response rating, Horseweed (Canada horseweed; [6]): 0 | Plant response rating, Surinam Grass (Surinam grass; [5]): 20 | Plant response rating, Quackgrass (quackgrass; [4]): 10 | Plant response rating, Quackgrass (quackgrass; [5]): 20 | Plant response rating, Quackgrass (quackgrass; [6]): 30 | Plant response rating, Groundsel (common groundsel; [4]): 0 | Plant response rating, Groundsel (common groundsel; [5]): 0 | Plant response rating, Groundsel (common groundsel; [6]): 60 | Plant response rating, Ragweed (common ragweed; [4]): 0 | Plant response rating, Ragweed (common ragweed; [5]): 0 | Plant response rating, Ragweed (common ragweed; [6]): 0 | Plant response rating, Spiderwort (tropical spiderwort; [5]): 0 | Plant response rating, Spiderwort (tropical spiderwort; [6]): 0 | Plant response rating, Ryegrass, Italian (Italian ryegrass [1]; [4]): 10 | Plant response rating, Ryegrass, Italian (Italian ryegrass [1]; [5]): 30 | Plant response rating, Ryegrass, Italian (Italian ryegrass [1]; [6]): 60 | Plant response rating, Purslane (common purslane; [4]): 100 | Plant response rating, Purslane (common purslane; [5]): 100 | Plant response rating, Purslane (common purslane; [6]): 100 | Plant response rating, Bermudagrass (bermudagrass; [4]): 20 | Plant response rating, Bermudagrass (bermudagrass; [5]): 60 | Plant response rating, Bermudagrass (bermudagrass; [6]): 60

CCN1N=C(C(C)(C)C)CC1C(=O)Nc1cc(C(=O)N(C)C)ccc1F (stereo not drawn) [Compound 268, N-[5-[(dimethylamino)carbonyl]-2-fluorophenyl]-3-(1,1-dimethylethyl)-1-ethyl-4,5-dihydro-1H-pyrazole-5-carboxamide]
Plant response rating, Prickly Sida (prickly sida; 62 g ai/ha, scale 0 to 100): 60 | Plant response rating, Prickly Sida (prickly sida; 125 g ai/ha, scale 0 to 100): 80 | Plant response rating, Prickly Sida (prickly sida; [3]): 100 | Plant response rating, Prickly Sida (prickly sida; 500 g ai/ha, scale 0 (no effect) to 100 (complete control)): 100 | Plant response rating, Johnsongrass (johnsongrass; [4]): 30 | Plant response rating, Johnsongrass (johnsongrass; [5]): 50 | Plant response rating, Johnsongrass (johnsongrass; [6]): 50 | Plant response rating, Johnsongrass (johnsongrass; [7]): 80 | Plant response rating, Surinam Grass (Surinam grass; [5]): 90 | Plant response rating, Surinam Grass (Surinam grass; [7]): 100 | Plant response rating, Quackgrass (quackgrass; [4]): 40 | Plant response rating, Quackgrass (quackgrass; [5]): 85 | Plant response rating, Quackgrass (quackgrass; [6]): 95 | Plant response rating, Quackgrass (quackgrass; [7]): 95 | Plant response rating, Ragweed (common ragweed; [4]): 50 | Plant response rating, Ragweed (common ragweed; [5]): 60 | Plant response rating, Ragweed (common ragweed; [6]): 100 | Plant response rating, Ragweed (common ragweed; [7]): 100 | Plant response rating, Oat, Wild (wild oat; [8]): 65 | Plant response rating, Oat, Wild (wild oat; [9]): 35 | Plant response rating, Oat, Wild (wild oat; [10]): 20 | Plant response rating, Ryegrass, Italian (Italian ryegrass [2]; [8]): 40 | Plant response rating, Ryegrass, Italian (Italian ryegrass [2]; [9]): 30 | Plant response rating, Ryegrass, Italian (Italian ryegrass [2]; [10]): 10 | Plant response rating, Spiderwort (tropical spiderwort; [5]): 70 | Plant response rating, Spiderwort (tropical spiderwort; [6]): 85 | Plant response rating, Spiderwort (tropical spiderwort; [7]): 90 | Plant response rating, Ryegrass, Italian (Italian ryegrass [1]; [4]): 95 | Plant response rating, Ryegrass, Italian (Italian ryegrass [1]; [5]): 95 | Plant response rating, Ryegrass, Italian (Italian ryegrass [1]; [6]): 95 | Plant response rating, Ryegrass, Italian (Italian ryegrass [1]; [7]): 95 | Plant response rating, Bermudagrass (bermudagrass; [4]): 60 | Plant response rating, Bermudagrass (bermudagrass; [5]): 90 | Plant response rating, Bermudagrass (bermudagrass; [6]): 95 | Plant response rating, Bermudagrass (bermudagrass; [7]): 100

CCn1nc(C(C)(C)C)cc1C(=O)Nc1cc(C(=O)N(C)C)ccn1 [Compound 156, 2-[[[3-(1,1-dimethylethyl)-1-ethyl-1H-pyrazol-5-yl]carbonyl]amino]-N,N-dimethyl-4-pyridinecarboxamide]
Plant response rating, Johnsongrass (johnsongrass; [11]): 100 | Plant response rating, Johnsongrass (johnsongrass; [12]): 100 | Plant response rating, Johnsongrass (johnsongrass; [4]): 95 | Plant response rating, Johnsongrass (johnsongrass; [5]): 100 | Plant response rating, Johnsongrass (johnsongrass; [6]): 100 | Plant response rating, Johnsongrass (johnsongrass; [7]): 100 | Plant response rating, Johnsongrass (johnsongrass; [9]): 95 | Plant response rating, Johnsongrass (johnsongrass; [10]): 85 | Plant response rating, Horseweed (Canada horseweed; [11]): 100 | Plant response rating, Horseweed (Canada horseweed; [12]): 100 | Plant response rating, Horseweed (Canada horseweed; [4]): 95 | Plant response rating, Horseweed (Canada horseweed; [5]): 100 | Plant response rating, Horseweed (Canada horseweed; [6]): 100 | Plant response rating, Horseweed (Canada horseweed; [7]): 100 | Plant response rating, Surinam Grass (Surinam grass; [11]): 100 | Plant response rating, Surinam Grass (Surinam grass; [12]): 98 | Plant response rating, Surinam Grass (Surinam grass; [4]): 50 | Plant response rating, Surinam Grass (Surinam grass; [5]): 75 | Plant response rating, Surinam Grass (Surinam grass; [7]): 95 | Plant response rating, Surinam Grass (Surinam grass; [9]): 95 | Plant response rating, Surinam Grass (Surinam grass; [10]): 80 | Plant response rating, Quackgrass (quackgrass; [11]): 98 | Plant response rating, Quackgrass (quackgrass; [12]): 95 | Plant response rating, Quackgrass (quackgrass; [4]): 50 | Plant response rating, Quackgrass (quackgrass; [5]): 90 | Plant response rating, Quackgrass (quackgrass; [6]): 95 | Plant response rating, Quackgrass (quackgrass; [7]): 100 | Plant response rating, Quackgrass (quackgrass; [9]): 95 | Plant response rating, Quackgrass (quackgrass; [10]): 75 | Plant response rating, Groundsel (common groundsel; [11]): 100 | Plant response rating, Groundsel (common groundsel; [12]): 100 | Plant response rating, Groundsel (common groundsel; [4]): 100 | Plant response rating, Groundsel (common groundsel; [5]): 100 | Plant response rating, Groundsel (common groundsel; [6]): 100 | Plant response rating, Groundsel (common groundsel; [7]): 100 | Plant response rating, Groundsel (common groundsel; [9]): 100 | Plant response rating, Groundsel (common groundsel; [10]): 80 | Plant response rating, Ragweed (common ragweed; [11]): 98 | Plant response rating, Ragweed (common ragweed; [12]): 90 | Plant response rating, Ragweed (common ragweed; [4]): 50 | Plant response rating, Ragweed (common ragweed; [5]): 90 | Plant response rating, Ragweed (common ragweed; [6]): 95 | Plant response rating, Ragweed (common ragweed; [7]): 100 | Plant response rating, Ragweed (common ragweed; [9]): 90 | Plant response rating, Ragweed (common ragweed; [10]): 80 | Plant response rating, Spiderwort (tropical spiderwort; [11]): 65 | Plant response rating, Spiderwort (tropical spiderwort; [12]): 50 | Plant response rating, Spiderwort (tropical spiderwort; [4]): 30 | Plant response rating, Spiderwort (tropical spiderwort; [5]): 50 | Plant response rating, Spiderwort (tropical spiderwort; [6]): 50 | Plant response rating, Spiderwort (tropical spiderwort; [7]): 80 | Plant response rating, Spiderwort (tropical spiderwort; [9]): 30 | Plant response rating, Spiderwort (tropical spiderwort; [10]): 20 | Plant response rating, Ryegrass, Italian (Italian ryegrass [1]; [11]): 98 | Plant response rating, Ryegrass, Italian (Italian ryegrass [1]; [12]): 98 | Plant response rating, Ryegrass, Italian (Italian ryegrass [1]; [4]): 60 | Plant response rating, Ryegrass, Italian (Italian ryegrass [1]; [5]): 95 | Plant response rating, Ryegrass, Italian (Italian ryegrass [1]; [6]): 100 | Plant response rating, Ryegrass, Italian (Italian ryegrass [1]; [7]): 100 | Plant response rating, Ryegrass, Italian (Italian ryegrass [1]; [9]): 95 | Plant response rating, Ryegrass, Italian (Italian ryegrass [1]; [10]): 90 | Plant response rating, Purslane (common purslane; [11]): 100 | Plant response rating, Purslane (common purslane; [12]): 100 | Plant response rating, Purslane (common purslane; [4]): 100 | Plant response rating, Purslane (common purslane; [5]): 100 | Plant response rating, Purslane (common purslane; [6]): 100 | Plant response rating, Purslane (common purslane; [7]): 100 | Plant response rating, Purslane (common purslane; [9]): 100 | Plant response rating, Purslane (common purslane; [10]): 75 | Plant response rating, Bermudagrass (bermudagrass; [11]): 98 | Plant response rating, Bermudagrass (bermudagrass; [12]): 95 | Plant response rating, Bermudagrass (bermudagrass; [4]): 95 | Plant response rating, Bermudagrass (bermudagrass; [5]): 100 | Plant response rating, Bermudagrass (bermudagrass; [6]): 100 | Plant response rating, Bermudagrass (bermudagrass; [7]): 100 | Plant response rating, Bermudagrass (bermudagrass; [9]): 95 | Plant response rating, Bermudagrass (bermudagrass; [10]): 65
